Laboratory results reported in US11484543B2, “Compositions and methods for diagnosing and treating diseases and disorders associated with mutant KCNJ5” (The Rockefeller University, priority 2017, dated 2022).

Biological target: T1, KCNJ5^G151R homotetramers (Homo sapiens, UniProt P48544, G151R)
T1 construct: GFP; expressed in transfected cells; host or cells: HEK293T (American Type Culture Collection), transient
T1 sequence (P48544 1-419 G151R): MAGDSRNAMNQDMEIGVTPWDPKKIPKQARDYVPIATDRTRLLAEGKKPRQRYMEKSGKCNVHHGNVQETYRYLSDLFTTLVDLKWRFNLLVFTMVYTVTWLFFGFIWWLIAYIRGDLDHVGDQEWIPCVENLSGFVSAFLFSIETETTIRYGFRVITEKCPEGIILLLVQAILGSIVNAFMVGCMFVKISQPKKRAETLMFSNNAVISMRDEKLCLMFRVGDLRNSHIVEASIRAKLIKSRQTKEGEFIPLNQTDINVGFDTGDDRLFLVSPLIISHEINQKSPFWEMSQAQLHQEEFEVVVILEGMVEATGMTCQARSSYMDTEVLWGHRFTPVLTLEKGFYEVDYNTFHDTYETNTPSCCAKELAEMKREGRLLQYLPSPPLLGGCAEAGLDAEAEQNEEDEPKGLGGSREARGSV
Test: Perforated whole-cell patch clamp, KCNJ5^G151R homotetramers in HEK293T cells
Format: cell-based
Settings: HEK-293T, at −80 mV
Description: Cation currents were measured with the perforated whole cell recording technique (140 mM NaCl/5 mM KCl bath solution, 140 mM KCl pipette solution for KCNJ5^G151R; 140 mM NaCl/5 mM KCl bath solution, 140 mM KCl, 1.8 mM MgCl2 pipette solution for KCNJ5^L168R; 140 mM KCl bath and pipette solution for KCNJ5^WT). […] Errors represent standard error of the mean, N=3 to 6. […] In contrast, WT currents are not inhibited.
HEK293T cells (American Type Culture Collection) were used for transient expression of GFP-tagged KCNJ5 or KCNJ3. The cells were grown in Dulbecco's modified Eagle medium (DMEM; Invitrogen) supplemented with 10% FBS (Invitrogen) in 5% CO2 and 95% air at 37° C. […]
Within 24 hr after transfection, the cells were treated with trypsin-containing medium (TrypLE Express) (Gibco) for 10 minutes to detach the cells. […] Fluorescence signal (an indication of positive transfection) was detected with an intensified video imaging system including a SIT 68 camera (Long Island Industries). […] After forming a high resistance seal (>2 GΩ), the membrane capacitance was monitored until the whole-cell patch configuration was formed. The cell membrane capacitance was measured and compensated. The K/cation currents were measured from −80 mV to 20 mV with 20 mV steps by an Axon 200A patch-clamp amplifier. […]

Work on CC[C@H]1OC(=O)[C@H](C)[C@@H](O[C@H]2C[C@@](C)(OC)[C@@H](O)[C@H](C)O2)[C@H](C)[C@@H](O[C@@H]2O[C@H](C)C[C@H](N(C)C)[C@H]2O)[C@](C)(O)C[C@@H](C)/C(=N\OCOCCOC)[C@H](C)[C@@H](O)[C@]1(C)O [Roxithromycin, roxithromycin] yielded an inhibition at 10 µM (10 μM) of 53% and an inhibition at 20 µM (20 μM) of 80%.
